Reference: ChEMBL document CHEMBL6153078, “Design, synthesis, and biological evaluation of imidazolidinone derivatives as potent PPARα/δ agonists for the treatment of cholestatic liver diseases” (Eur J Med Chem, 2025)

Columns and labels:
Assay type in all cases: cell-based
[1] = biological target: T1, Peroxisome proliferator-activated receptor delta (Homo sapiens, UniProt Q03181); experiment: Agonist activity at GAL4-fused human PPAR-delta transfected in African green monkey COS7 cells assessed transcriptional activation incubated for 16 hrs by Luciferase assay
T1 sequence (Q03181 whole entry): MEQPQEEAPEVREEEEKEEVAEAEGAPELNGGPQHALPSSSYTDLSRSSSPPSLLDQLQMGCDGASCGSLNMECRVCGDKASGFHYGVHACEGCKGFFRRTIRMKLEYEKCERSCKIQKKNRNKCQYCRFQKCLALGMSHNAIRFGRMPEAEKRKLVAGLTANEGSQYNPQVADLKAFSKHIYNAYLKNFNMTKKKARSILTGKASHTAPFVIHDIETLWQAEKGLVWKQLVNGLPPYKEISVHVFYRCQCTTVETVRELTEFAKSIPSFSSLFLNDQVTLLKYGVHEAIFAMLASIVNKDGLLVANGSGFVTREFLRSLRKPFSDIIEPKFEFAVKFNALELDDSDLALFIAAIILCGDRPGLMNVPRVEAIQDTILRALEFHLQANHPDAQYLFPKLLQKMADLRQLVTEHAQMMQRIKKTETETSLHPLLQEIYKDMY

[2] = biological target: T2, Peroxisome proliferator-activated receptor alpha (Homo sapiens, UniProt Q07869); experiment: Agonist activity at GAL4-fused human PPAR-alpha transfected in African green monkey COS7 cells assessed transcriptional activation incubated for 16 hrs by Luciferase assay
T2 sequence (Q07869 whole entry): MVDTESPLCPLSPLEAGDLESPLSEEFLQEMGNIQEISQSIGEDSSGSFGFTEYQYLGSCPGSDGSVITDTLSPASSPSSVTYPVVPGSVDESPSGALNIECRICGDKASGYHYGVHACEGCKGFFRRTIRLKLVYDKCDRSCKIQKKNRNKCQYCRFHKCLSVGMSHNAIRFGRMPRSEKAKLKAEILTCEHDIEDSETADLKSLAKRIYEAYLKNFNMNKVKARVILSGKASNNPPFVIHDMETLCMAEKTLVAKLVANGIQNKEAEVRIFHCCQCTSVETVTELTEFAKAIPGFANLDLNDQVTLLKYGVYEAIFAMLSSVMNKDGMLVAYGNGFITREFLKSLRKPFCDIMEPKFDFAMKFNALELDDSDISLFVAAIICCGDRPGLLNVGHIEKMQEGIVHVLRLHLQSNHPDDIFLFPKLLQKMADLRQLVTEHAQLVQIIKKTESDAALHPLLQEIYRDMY

[3] = biological target: T3, Peroxisome proliferator-activated receptor gamma (Homo sapiens, UniProt P37231); experiment: Agonist activity at GAL4-fused human PPAR-gamma transfected in African green monkey COS7 cells assessed transcriptional activation incubated for 16 hrs by Luciferase assay
T3 sequence (P37231 whole entry): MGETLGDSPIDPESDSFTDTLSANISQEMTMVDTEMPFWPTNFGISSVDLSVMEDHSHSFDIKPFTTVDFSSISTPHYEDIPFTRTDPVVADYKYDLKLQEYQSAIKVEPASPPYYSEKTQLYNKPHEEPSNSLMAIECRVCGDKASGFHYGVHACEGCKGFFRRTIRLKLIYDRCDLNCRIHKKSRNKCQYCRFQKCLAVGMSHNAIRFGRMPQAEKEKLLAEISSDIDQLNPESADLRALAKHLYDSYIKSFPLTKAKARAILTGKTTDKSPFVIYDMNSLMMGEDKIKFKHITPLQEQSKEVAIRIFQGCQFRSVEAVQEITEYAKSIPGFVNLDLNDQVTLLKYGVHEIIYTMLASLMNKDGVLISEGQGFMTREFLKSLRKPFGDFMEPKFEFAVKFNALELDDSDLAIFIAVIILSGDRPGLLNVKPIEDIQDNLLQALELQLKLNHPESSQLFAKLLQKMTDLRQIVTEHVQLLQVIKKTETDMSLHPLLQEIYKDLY

SMILES	EC50 [1]	EC50 [2]	EC50 [3]
Cc1cc(CN2CCN(c3cccc(C(F)(F)F)c3)C2=O)cc(C)c1OC(C)(C)C(=O)O	40.9 nM	14.2 nM	884 nM
CC(C)(Oc1ccc(CN2CCN(c3ccc(C(F)(F)F)cc3)C2=O)cc1)C(=O)O			> 5000 nM
Cc1cc(CN2CCN(c3ccc(C(C)(C)C)cc3)C2=O)cc(C)c1OC(C)(C)C(=O)O	> 5000 nM		
Cc1cc(CN2CCN(c3ccccc3)C2=O)cc(C)c1OC(C)(C)C(=O)O	260 nM	436 nM	
CSc1ccc(C(=O)/C=C/c2cc(C)c(OC(C)(C)C(=O)O)c(C)c2)cc1 [ELAFIBRANOR]		888 nM	1570 nM
Cc1cc(CN2CCN(c3ccccc3C(F)(F)F)C2=O)cc(C)c1OC(C)(C)C(=O)O	> 5000 nM	> 5000 nM	
Cc1cc(CN2CCN(c3ccc(C(F)(F)F)cc3)C2=O)ccc1OC(C)(C)C(=O)O		175 nM	> 5000 nM
Cc1cc(CN2CCN(c3ccc(OC(F)(F)F)cc3)C2=O)cc(C)c1OC(C)(C)C(=O)O	36.9 nM	4.7 nM	416 nM
Cc1cc(Cn2ncn(-c3ccc(OC(F)(F)F)cc3)c2=O)cc(C)c1OC(C)(C)C(=O)O		8.5 nM	

Now from value to compound:

EC50 [1]	EC50 [2]	EC50 [3]	SMILES
69.6 nM			Cc1cc(CN2CCN(c3ccc(C(C)C)cc3)C2=O)cc(C)c1OC(C)(C)C(=O)O
	1020 nM		Cc1cc(CN2CCN(c3ccc(Cl)cc3)C2=O)cc(C)c1OC(C)(C)C(=O)O
263 nM	121 nM	2580 nM	COc1ccc(N2CCN(Cc3cc(C)c(OC(C)(C)C(=O)O)c(C)c3)C2=O)cc1
	40.4 nM	1200 nM	Cc1ccc(N2CCN(Cc3cc(C)c(OC(C)(C)C(=O)O)c(C)c3)C2=O)cc1
39 nM	89.5 nM	2130 nM	Cc1cc(CN2CCN(c3ccc(F)cc3)C2=O)cc(C)c1OC(C)(C)C(=O)O
	7.3 nM	1290 nM	CCc1ccc(N2CCN(Cc3cc(C)c(OC(C)(C)C(=O)O)c(C)c3)C2=O)cc1
